Results: publication PMC4724521 (Phytochemistry, 2015)

Columns and labels:
K. brevis EH = assay: Inhibition assay of purified EH with fluorescent substrate 5b; assay type: biochemical, Karenia brevis; conditions: substrate 5b 100 μM, EH 0.1 mg/ml, 2 min preincubation, pH 7.0, 30 °C
[1] = test system: EH activity of K. brevis CFE
[2] = target: Rhodococcus erythropolis LEH; conditions: ref Arand et al., 2003; cited from earlier work

Structure (SMILES)	IC50 (K. brevis EH) [mM]	inhibition of total EH activity (in words) [1]	Ki [2] [mM]
CC1OC1c1ccccc1 (stereo not drawn) [cis-β-methylstyrene oxide]	3.05		
C[C@H]1O[C@@H]1c1ccccc1 (relative stereo) [trans-β-methylstyrene oxide-, trans-β-methylstyrene oxide]	14.3		
CCCC(CCC)C(N)=O [valpromide 8, valpromide]		only adamantly urea 7 inhibited the total activity	0.1
CC1(C)OC1c1ccccc1 (stereo not drawn) [β-dimethylstyrene oxide]	6.99		
